Experimental data taken from patent US20240373849A1, “INSECT NEUROPEPTIDE ANALOGUES” (THE UNIVERSITY COURT OF THE UNIVERSITY OF GLASGOW, priority 2020, published 2024).
Values joined by “and” are separate entries in the source; they are usually repeats but may differ in a detail not shown here. Equal values may be shown once. Square brackets hold non-standard residues; d marks the D form. NMeL = CN[C@@H](CC(C)C)C(=O)O; NMeA = CN[C@@H](C)C(=O)O

Tests used:
M. persicae [1] = assay: Feeding of aphids with peptides in artificial diet (Example 2; peptide screening, honeydew); assay type: in vivo, Myzus persicae; details: for M. persicae (% Lethality): Peptide screening, Table 5; for mean lethality / lethality observed in one sample of 30 insects: M. persicae feeding, 10^−5 M, 120 hours; for lethality observed in one sample of 30 insects: single sample
From the text: (§1) First to Fourth generations of peptides were produced with varying structures and tested for CAPA receptor agonist activity, and screened for lethality in vivo against D. suzukii and M. persicae as per methods in example 2 and example 8. The top performing peptides were selected and gave rise to the list of CAPA1 and CAPA2 peptides provided above in Table 1 which were then further tested in the following applied examples.
The aphid feeding protocol was devised according to Sadeghi et al (2009) as explained in example 1. Feeding discs were designed and manufactured as above. A standard sucrose-based artificial diet for M. persicae (30 aphids per chamber, 3 chambers per experiment unless otherwise stated) was produced as described in example 1 (Sadeghi et al, J. Insect Science, 2009) and provided the basal diet to which peptides were added for screening purposes. Peptides were diluted individually in the artificial diet to 10^−5 M. Lethality was scored after up to 120 hours (IRAC guidelines for aphid testing).
Membrane discs were also included to collect ‘honeydew’ secreted by feeding aphids and stained with ninhydrin to observe feeding patterns.
Comparison of purple stain in controls to treated aphids, show there is very little colour on many membranes where peptides were added.
Capa peptides cause mortality in M. persicae via feeding: At 120 hours, AH383 and AH387 peptides induce ˜60% mean (and median) lethality. Although mean lethality is lower with AH270/PEGAH270 (40%), 100% lethality is observed in one sample of 30 insects (AH270); and 90% in at least one sample of each of AH383, AH387 and PEGAH270 (FIG. 3). Note that PEGAH270 is a pegylated form of peptide AH270.

M. persicae [2] = assay: Feeding of aphids with peptides in artificial diet (Example 1); assay type: in vivo, Myzus persicae
Description: A standard artificial diet for M. persicae was produced as described in Van Emden (2009) and provided the basal diet to which peptides were added for screening purposes. Peptides were diluted individually in the artificial diet to a pre-determined concentration.
Feeding apparatus were constructed using a set-up developed by Sadeghi et al (2009). For this, a piece of Parafilm was stretched over a Plexiglas ring (h=4 cm, Ø=3 cm) and 100 μl of the artificial diet containing the desired neuropeptide analogue was pipette onto the Parafilm membrane. A second piece of Parafilm, stretched to 4 times the original thickness, was stretched over the original layer, sandwiching the artificial diet between two layers of Parafilm. A strip of Parafilm was wrapped around the circumference of the Plexiglas ring, sealing in the diet. A plastic ring (h=1.2 cm, Ø=3.4 cm) was subsequently placed over the Parafilm layer, creating a walled chamber in which to house test aphids in contact with the Parafilm layer containing the artificial diet. Finally, a small Petri dish (h=1 cm, Ø=3.6 cm), modified for ventilation with net cloth, was placed on top of each feeding apparatus to prevent aphid escape.
To obtain aphids for use in experiments, reproducing anholocyclic adults were placed on individual excised leaves of Chinese cabbage at densities of 5 adults per leaf and allowed to reproduce for 24 h. The stem of each excised leaf was held within a 0.5 mL Eppendorf tube containing water via a punctured hole in the Eppendorf lid, and placed individually within a microcage (L=4 cm, Ø=9.5 cm). Following 24h, adults were removed and resultant first instar nymphs (<1 day old and synchronised in age to within 24h) retained. Nymphs were allowed to develop on the Chinese cabbage for 5 days. On day 5, (3rd instar) nymphs were transferred onto the artificial diet containing a neuropeptide analogue at densities of 1 per feeding chamber and monitored daily until death. Aphids were transferred to fresh artificial diet (containing neuropeptide analogue or water control) every 5 days.
The water control group was used to determine baseline lethality. Results for neuropeptide analogues were calculated as % lethality in the remaining population after adjustment for the baseline.

Myzus persicae aphids = assay: Topical application by spraying, Potter Spray Tower (Example 3); assay type: in vivo; details: 48 hours post spray
Description: Aphids were exposed to test peptides in the absence of additional external stress conditions.
Brassica rapa (Chinese cabbage; Wong Bok) were infested with 30 adult Myzus persicae aphids per plant. Aphids were left at least 2 hours to settle and begin feeding from the host plant.
Potter Spray Tower (Burkard Manufacturing) was ‘primed’ by spraying 1000 μl of liquid coating the inside of the tower. Vehicle spray only (Croda ATPlus UEP 100 LQ-(CQ) 0.1% v/v) was used as a control.
Spray volumes for all solutions were 3000 μl. […] After spraying was completed the plant was allowed to rest on the spray platform for 30 seconds to allow settling of the sprayed chemical.
Post peptide application, each condition was placed into its own individual Bugdorm (Watkins and Doncaster, 44545), to prevent repulsed or displaced aphids moving from one condition to another. Numbers of alive and dead aphids on the plant were counted 48 hours post spray, and the presence of any fresh nymphs noted. Plants were watered prior to spraying but not afterwards to eliminate the possibility of drowning any aphids present or washing off the sprayed liquid.
The vehicle control group was used to determine baseline lethality. Results for neuropeptide analogues were calculated as % lethality in the remaining population after adjustment for the baseline.

[3] = tested on: Drosophila suzukii larvae; assay: Drosophila suzukii larval feeding (Example 8; peptide screening); assay type: in vivo; set-up: key to D. suzukii (Sig Diff Grp): A indicates a significant difference in survival compared with control (blank).; B indicates a significant difference in survival compared with scrambled capa1.; C indicates a significant difference in survival compared with scrambled capa2; details: for Feeding D. suzukii, % lethality in population after adjustment for baseline: 10^−5 M, 48 hr exposure; for D. suzukii (Mean% Lethality ± SD) / D. suzukii (Sig Diff Grp): Peptide screening, Table 5; for D. suzukii (Mean% Lethality ± SD): blank control 20.33; for D. suzukii (Sig Diff Grp): difference in survival
Description: as §1
Peptides were tested at concentrations ranging from [10^−4 M] to [10^−7 M] in a final volume of 200 μl of 0.8% agarose containing 0.09% m-Cresol purple pH marker dye (Sigma) and 5% sucrose (Sigma).
Agarose was melted in dH2O, before addition of sucrose and dye. The agarose/dye solution was then allowed to cool to 60° C. 96 well plates (flat-bottomed 3596 TC-plates; Corning) containing 20 μl volumes of neuropeptide per well were prepared, and 180 μl agarose/dye solution dispensed into each well via a Distriman repetitive micro-pipettor (Gilson). Controls contained 20 μl dH2O as a ‘sham’ treatment with 180 μl of the 0.8% agarose/dye solution. Plates were agitated at 800 rpm, to ensure mixing, at 60° C. (Eppendorf Thermomixer C). Plates were then allowed to cool, and agarose/dye solution solidify, prior to use.
Each peptide was assayed with a minimum of 7 to maximum 9 late L2/early L3 Spotted wing Drosophila, Drosophila suzukii, (feeding) larvae per well, minimum n=8 wells per peptide concentration and a minimum n=12 control wells per plate. The selected larvae were first washed 2× in ice cold Drosophila Schneider's liquid medium (ThermoFisher) before insertion into wells to remove extraneous food. After complete insertion of all larvae the plates were covered with breathable sealing membrane for multi-well plates (Sigma).
Larvae were assayed for lethality after 48 hr exposure at 21° C. and findings recorded. During examination the assay plate was kept on ice, to reduce larval locomotor activity (wandering), and larvae in each well were examined using a binocular stereomicroscope (Zeiss).
The water control group was used to determine baseline lethality. Results for neuropeptide analogues were calculated as % lethality in the remaining population after adjustment for the baseline. Results are shown in Tables 7 and 8 below, and in FIG. 1.

[4] = tested on: bumblebees (Bombus terrestris); assay: Bumblebee acute oral toxicity test; assay type: in vivo
Description: Oral toxicity against bumblebees (Bombus terrestris) was determined as previously described:
OECD (2017), Test No. 247: Bumblebee, Acute Oral Toxicity Test, OECD Guidelines for the Testing of Chemicals, Section 2, OECD Publishing, Paris, https://doi.org/10.1787/9789264284128-en.
Example data are provided for peptides, AH56, AH257, AH259 in Tables 4, 5 below. […]
Data were acquired for: feeding behaviour—weight of liquid consumed pre- and post-treatment; lethality (days).
There was no negative impact on feeding behaviour from capa peptides. Acute bumblebee toxicity was also assessed for other peptide candidates including: AH270, PEG270. Overall, capa peptides are bee safe.

D. suzukii larvae = assay: Drosophila suzukii larval feeding (Example 9; dose response); assay type: in vivo; details: for % Lethality ± SEM: Table 6, 10^−5 M, 48 hr and/or 72 h exposure (FIG. 7: AH270/PEGAH270 120 h)
Description: Dose response experiments were carried out for AH382, AH383, AH188, data shown for AH382 (a), AH383 (b), AH188 (c, 48 hours). Data are mean % lethality ±SEM for concentrations between 10^−4 M and 10^−7 M (a) AH382, (b) AH383 72 hours treatment; and between 10^−5 M and 10^−9 M (AH188, 3c), 48 hours treatment. The LD50 for AH382, AH383 and AH188 is 10^−6 M.
Further larval feeding assays with D. suzukii larvae were conducted as explained above in example 7. A total of 88 peptides were tested against D. suzukii larvae in 96 well plates at 10^−5 M in a final volume of 200 μl of 0.8% agarose containing 0.09% m-Cresol purple pH marker dye (Sigma) and 5% sucrose (Sigma). Controls contained dH2O (18% lethality) or native Capa-2 peptide (38% lethality) as a ‘sham’ treatment. Each peptide was assayed with a minimum of 7 to maximum 9 late L2/early L3 larvae per well, minimum n=8 wells per peptide concentration (minimum 56 larvae) and a minimum n=12 control wells (minimum 84 larvae) per plate. Larvae were assayed for lethality after 48 hr and/or 72 h exposure at 21° C. using a binocular stereomicroscope and findings recorded. Candidate peptides were also tested between 10^-4 and 10^-7 M (dose response curve).
Candidate peptides for D. suzukii with 70%-90% lethality are indicated below, in Table 6.

[5] = Table 11, individual bees, peptide 1 × 10 − 5M or Spirotetramat 25 uM, listed as AHPEG270

## H-Ahx-L-(Me)V-AFPRV-NH2 [AH283]
M. persicae [1]
  M. persicae (% Lethality): 40%
M. persicae [2]; 10^−4 M
  Feeding Aphid, % lethality in population after adjustment for baseline: 34%
M. persicae [2]; 10^−5 M
  Feeding Aphid, % lethality in population after adjustment for baseline: 26%
M. persicae [2]; 10^−5 M, @72 h
  Feeding Aphid, % lethality in population after adjustment for baseline: 12 (51%
M. persicae [2]; 10^−6 M
  Feeding Aphid, % lethality in population after adjustment for baseline: 27%
M. persicae [2]; 10^−7 M
  Feeding Aphid, % lethality in population after adjustment for baseline: 20%
Myzus persicae aphids; 10^−4 M
  Spray Aphid, % lethality in population after adjustment for baseline: 30%
Myzus persicae aphids; 10^−5 M
  Spray Aphid, % lethality in population after adjustment for baseline: 20%
[3]
  Feeding D. suzukii, % lethality in population after adjustment for baseline: 43%
  D. suzukii (Mean% Lethality ± SD): 42.63%
  D. suzukii (Sig Diff Grp): A

## PEG-Ahx-LV-(Me)A-FPR-(Me)V-NH2 [PEGAH270, a pegylated form of peptide AH270]
[4]; Table 11, group mean, n=10
  Liquid post exposure (weight), Mean: 0.8814 g
  liquid consumed per day post exposure, Mean: 0.2211 g
[4]; [5]
  Liquid post exposure (weight): 1.5744 g and 0.7150 g and 0.4326 g and 0.2731 g and 1.1763 g and 1.8061 g and 0.5676 g and 1.5696 g and 0.6889 g and 0.0102 g
  days alive: 4 days (9×) and 0 (approx 1 hr) days
  liquid consumed per day post exposure: 0.3936 g and 0.1788 g and 0.1082 g and 0.0683 g and 0.2941 g and 0.4515 g and 0.1419 g and 0.3924 g and 0.1722 g and 0.0102 g
[4]; in vivo, po
  safety towards B. terrestris in the bumblebee oral toxicity assay: safe
M. persicae [1]
  mean lethality: 40%
  lethality observed in one sample of 30 insects: 90%
D. suzukii larvae
  % Lethality ± SEM: 77 ± 4%

## H-(Me)L-YAFARV-NH2 (H-[NMeL]YAFARV-NH2; SMILES CN[C@@H](CC(C)C)C(=O)N[C@@H](Cc1ccc(O)cc1)C(=O)N[C@@H](C)C(=O)N[C@@H](Cc1ccccc1)C(=O)N[C@@H](C)C(=O)N[C@@H](CCCNC(=N)N)C(=O)N[C@H](C(N)=O)C(C)C) [AH383]
M. persicae [1]
  mean lethality: ~60%
  lethality observed in one sample of 30 insects: 90%
D. suzukii larvae; 72 hours treatment
  LD50: 10^−6 M
D. suzukii larvae
  % Lethality ± SEM: 80 ± 3%
M. persicae [2]; 10^−5 M
  Feeding Aphid, % lethality in population after adjustment for baseline: 10%
Myzus persicae aphids; 10^−4 M
  Spray Aphid, % lethality in population after adjustment for baseline: 42%
Myzus persicae aphids; 10^−5 M
  Spray Aphid, % lethality in population after adjustment for baseline: 13%
[3]
  Feeding D. suzukii, % lethality in population after adjustment for baseline: 56%

## H-ASGLVAFPRV-NH2 [Capa-2, reference compound]
D. suzukii larvae; control ('sham') treatment, not baseline adjusted
  lethality: 38%

## H-LYAFARV-NH2 [AH188]
M. persicae [1]
  M. persicae (% Lethality): 22%
D. suzukii larvae; 48 hours treatment
  LD50: 10^−6 M
D. suzukii larvae
  % Lethality ± SEM: 71 ± 6%
M. persicae [2]; 10^−4 M
  Feeding Aphid, % lethality in population after adjustment for baseline: 23%
M. persicae [2]; 10^−5 M
  Feeding Aphid, % lethality in population after adjustment for baseline: 23%
M. persicae [2]; 10^−5 M, @72 h
  Feeding Aphid, % lethality in population after adjustment for baseline: 1 (33%@72 h)
M. persicae [2]; 10^−6 M
  Feeding Aphid, % lethality in population after adjustment for baseline: 22%
M. persicae [2]; 10^−7 M
  Feeding Aphid, % lethality in population after adjustment for baseline: 17%
Myzus persicae aphids; 10^−4 M
  Spray Aphid, % lethality in population after adjustment for baseline: 2%
[3]
  Feeding D. suzukii, % lethality in population after adjustment for baseline: 71%
  D. suzukii (Mean% Lethality ± SD): 70.50%
  D. suzukii (Sig Diff Grp): ABC

## H-LY-(Me)A-FARV-NH2 (H-LY[NMeA]FARV-NH2; SMILES CC(C)C[C@H](N)C(=O)N[C@@H](Cc1ccc(O)cc1)C(=O)N(C)[C@@H](C)C(=O)N[C@@H](Cc1ccccc1)C(=O)N[C@@H](C)C(=O)N[C@@H](CCCNC(=N)N)C(=O)N[C@H](C(N)=O)C(C)C) [AH382]
D. suzukii larvae; 72 hours treatment
  LD50: 10^−6 M
D. suzukii larvae
  % Lethality ± SEM: 90 + 4%
M. persicae [2]; 10^−5 M
  Feeding Aphid, % lethality in population after adjustment for baseline: 12%
Myzus persicae aphids; 10^−4 M
  Spray Aphid, % lethality in population after adjustment for baseline: 49%
Myzus persicae aphids; 10^−5 M
  Spray Aphid, % lethality in population after adjustment for baseline: 10%
[3]
  Feeding D. suzukii, % lethality in population after adjustment for baseline: 43%
